Source: patent publication US20180298405A1, “METHODS AND COMPOSITIONS TO INCREASE HUMAN SOMATIC CELL NUCLEAR TRANSFER (SCNT) EFFICIENCY BY REMOVING HISTONE H3-LYSINE TRIMETHYLATION, AND DERIVATION OF HUMAN NT-ESC” (CHILDREN'S MEDICAL CENTER CORPORATION, priority 2015, published 2018)

Test system: reprogramming resistant regions (RRRs) / ZGA genes
Test: RNA-seq of late 8-cell human SCNT embryos with or without KDM4A mRNA injection (ZGA of RRRs, KDM4A-responsive genes)
Type: cell-based
Description: A sliding window (size 20 kb, step size 10 kb) was used to assess the genome-wide expression level of 4-cell and 8-cell human embryos. For each window, the expression level was quantified with normalized RPM (reads per millions of uniquely mapped reads). […] These activated regions were classed into three groups based on their expression differences in human SCNT and IVF 8-cell embryos.
The SCNT embryos used for ZGA analysis were generated using oocytes donated by a single healthy person (#64) and dermal fibroblast cells from an AMD patient (DFB-8). SCNT and IVF embryos were cultured up to late 8-cell stage, when the compaction of blastomeres is initiated, then they were treated briefly with acid Tyrode solution to remove zona pellucida. To prepare for the 8-cell SCNT embryo, oocytes from a single oocyte donor, and skin fibroblast cells from a single somatic nuclear donor were used. All the procedures are the same as described in the “Human SCNT procedure and KMD4A mRNA injection” section. Only embryos that reached the late 8-cell stage synchronically 74 hours post activation were collected and used for this experiment.
For preparation of the control IVF embryos, several donated early 8-cell stage IVF embryos were thawed and cultured for 5-7 hours to allow them to reach late 8-cell stage before being processed. After removal of the zona pellucida, the denuded embryos were washed 3 times in PBS, loaded into RNAse and DNAse free PCR tubes, spin downed, and snap frozen in liquid nitrogen. Then, they were kept at −80° C. until use. As controls, dermal fibroblast cells of somatic nuclear donors were also prepared. Those fibroblast cells were cultured in a 25 cm^2 flask in DMEM 10% FBS, and approximately 10,000 cells/donor were collected, snap frozen, and stored at −80° C. until use.
Five 8-cell embryos for each group were directly lysed and used for cDNA synthesis using SMART-Seq v4 Ultra Low Input RNA Kit (Clontech). For MEF donor, 10 ng total RNA was used for cDNA synthesis using SMART-Seq v4 Ultra Low Input RNA Kit. After amplification, the cDNA samples were fragmented using Covaris sonicator M220 to an average size of 150 bp (Covaris). Sequencing libraries were made with the fragmented DNA using NEBNext Ultra DNA Library Prep Kit for Illumina according to manufacturer's instruction (New England Biolabs) with different barcodes. For each RNA-seq analysis of hESCs, 1 μg total RNA was used for mRNA purification. Barcoded RNA-seq libraries were generated using NEBNext Ultra Directional RNA Library Prep Kit for Illumina (New England Biolabs). Single end 50 bp sequencing was performed on a HiSeq 2500 sequencer (Illumina). Sequencing reads were mapped to the human genome (hg19) with Tophat2. All programs were performed with default settings (unless otherwise specified). At least 22 million uniquely mapped reads were obtained for each sequencing library, and subsequently assembled into transcripts guided by the reference annotation (Refseq gene models) with Cufflinks v2.0.2. Expression level of each gene was quantified with normalized FPKM (fragments per kilobase of exon per million mapped fragments). Statistical analyses were performed with R (available at: “www.r-project.org/”). Independent 2 group Wilcoxon rank sum tests were used to compare distributions using the wilcox.test function in R. Pearson's r coefficient was calculated using the cor function with default parameters. The hierarchical clustering analysis of the global gene expression pattern in different samples was carried out using heatmap.2 function (gplots package) in R.

[1] = 8-cell SCNT embryos, FC>2 versus non-injected

## KDM4A mRNA: in vitro transcribed mRNA of full length human KDM4A/JHDM3A cDNA, an H3K9me3 demethylase (SEQ ID NO: 1)
[1]
  fraction of the 318 RRRs markedly up-regulated: 50%
  number of the 318 RRRs markedly up-regulated: 158
8-cell SCNT embryos, FPKM>5, FC>2
  number of genes significantly up-regulated (KDM4A-responsive genes): 206
8-cell embryos
  12-Sep Fold Change (log2) [KDM4A SCNT/Control SCNT]: 2 log2
  AASDH Fold Change (log2) [KDM4A SCNT/Control SCNT]: 1.19 log2
  ACBD5 Fold Change (log2) [KDM4A SCNT/Control SCNT]: 1.32 log2
  ALG5 Fold Change (log2) [KDM4A SCNT/Control SCNT]: 1.89 log2
  ALPPL2 Fold Change (log2) [KDM4A SCNT/Control SCNT]: 1.25 log2
  APOC1P1 Fold Change (log2) [KDM4A SCNT/Control SCNT]: 1.03 log2
  ATP5J2-PTCD1 Fold Change (log2) [KDM4A SCNT/Control SCNT]: 5.53 log2
  BEX2 Fold Change (log2) [KDM4A SCNT/Control SCNT]: 1.05 log2
  BLVRB Fold Change (log2) [KDM4A SCNT/Control SCNT]: 1.56 log2
  BTAF1 Fold Change (log2) [KDM4A SCNT/Control SCNT]: 1.93 log2
  BTK Fold Change (log2) [KDM4A SCNT/Control SCNT]: 1.09 log2
  BUD31 Fold Change (log2) [KDM4A SCNT/Control SCNT]: 1.19 log2
  C1D Fold Change (log2) [KDM4A SCNT/Control SCNT]: 1.67 log2
  C2orf74 Fold Change (log2) [KDM4A SCNT/Control SCNT]: 1.28 log2
  C11orf67 Fold Change (log2) [KDM4A SCNT/Control SCNT]: 1.34 log2
  C12orf60 Fold Change (log2) [KDM4A SCNT/Control SCNT]: 1.78 log2
  C16orf91 Fold Change (log2) [KDM4A SCNT/Control SCNT]: 1.24 log2
  C17orf89 Fold Change (log2) [KDM4A SCNT/Control SCNT]: 1.09 log2
  C18orf56 Fold Change (log2) [KDM4A SCNT/Control SCNT]: 1.43 log2
  C20orf7 Fold Change (log2) [KDM4A SCNT/Control SCNT]: 2.14 log2
  CAB39L Fold Change (log2) [KDM4A SCNT/Control SCNT]: 1.23 log2
  CCAR1 Fold Change (log2) [KDM4A SCNT/Control SCNT]: 1.15 log2
  CCDC86 Fold Change (log2) [KDM4A SCNT/Control SCNT]: 1.1 log2
  CCL2 Fold Change (log2) [KDM4A SCNT/Control SCNT]: 3.05 log2
  CCL15 Fold Change (log2) [KDM4A SCNT/Control SCNT]: 2.82 log2
  CELA3B Fold Change (log2) [KDM4A SCNT/Control SCNT]: 1.63 log2
  CENPC1 Fold Change (log2) [KDM4A SCNT/Control SCNT]: 1.1 log2
  CLC Fold Change (log2) [KDM4A SCNT/Control SCNT]: 3.69 log2
  CLDN6 Fold Change (log2) [KDM4A SCNT/Control SCNT]: 1.65 log2
  CLK4 Fold Change (log2) [KDM4A SCNT/Control SCNT]: 1.21 log2
  CNKSR3 Fold Change (log2) [KDM4A SCNT/Control SCNT]: 1.48 log2
  CNPY4 Fold Change (log2) [KDM4A SCNT/Control SCNT]: 1.77 log2
  COX7B2 Fold Change (log2) [KDM4A SCNT/Control SCNT]: 3.15 log2
  COX17 Fold Change (log2) [KDM4A SCNT/Control SCNT]: 1.44 log2
  CSAG1 Fold Change (log2) [KDM4A SCNT/Control SCNT]: 3.27 log2
  CSTF3 Fold Change (log2) [KDM4A SCNT/Control SCNT]: 1.29 log2
  CUL2 Fold Change (log2) [KDM4A SCNT/Control SCNT]: 1.29 log2
  CXorf61 Fold Change (log2) [KDM4A SCNT/Control SCNT]: 2.18 log2
  DDX26B Fold Change (log2) [KDM4A SCNT/Control SCNT]: 1.14 log2
  DEFB122 Fold Change (log2) [KDM4A SCNT/Control SCNT]: 1.06 log2
  DLEU7 Fold Change (log2) [KDM4A SCNT/Control SCNT]: 4.91 log2
  DNASE2 Fold Change (log2) [KDM4A SCNT/Control SCNT]: 1.11 log2
  DRAM1 Fold Change (log2) [KDM4A SCNT/Control SCNT]: 1.6 log2
  ECE2 Fold Change (log2) [KDM4A SCNT/Control SCNT]: 1.09 log2
  EIF1AD Fold Change (log2) [KDM4A SCNT/Control SCNT]: 1.18 log2
  ELL2 Fold Change (log2) [KDM4A SCNT/Control SCNT]: 1.01 log2
  FAM9A Fold Change (log2) [KDM4A SCNT/Control SCNT]: 3.83 log2
  FAM19A3 Fold Change (log2) [KDM4A SCNT/Control SCNT]: 2.58 log2
  FAM83D Fold Change (log2) [KDM4A SCNT/Control SCNT]: 1.32 log2
  FAM133B Fold Change (log2) [KDM4A SCNT/Control SCNT]: 1.1 log2
  FAM151A Fold Change (log2) [KDM4A SCNT/Control SCNT]: 1.99 log2
  FAM162A Fold Change (log2) [KDM4A SCNT/Control SCNT]: 1.73 log2
  FAM200A Fold Change (log2) [KDM4A SCNT/Control SCNT]: 1.17 log2
  FASTKD5 Fold Change (log2) [KDM4A SCNT/Control SCNT]: 1.05 log2
  FBXL12 Fold Change (log2) [KDM4A SCNT/Control SCNT]: 1.74 log2
  FMR1NB Fold Change (log2) [KDM4A SCNT/Control SCNT]: 1.49 log2
  FOXN2 Fold Change (log2) [KDM4A SCNT/Control SCNT]: 1.29 log2
  GALM Fold Change (log2) [KDM4A SCNT/Control SCNT]: 1.55 log2
  GIP Fold Change (log2) [KDM4A SCNT/Control SCNT]: 1.59 log2
  GJA1 Fold Change (log2) [KDM4A SCNT/Control SCNT]: 1.36 log2
  GOLGB1 Fold Change (log2) [KDM4A SCNT/Control SCNT]: 1.58 log2
  GUCA1B Fold Change (log2) [KDM4A SCNT/Control SCNT]: 1.02 log2
  GUSBP1 Fold Change (log2) [KDM4A SCNT/Control SCNT]: 1.11 log2
  GUSBP4 Fold Change (log2) [KDM4A SCNT/Control SCNT]: 1.12 log2
  H3F3A Fold Change (log2) [KDM4A SCNT/Control SCNT]: 1.84 log2
  IFI30 Fold Change (log2) [KDM4A SCNT/Control SCNT]: 1.05 log2
  IL13RA2 Fold Change (log2) [KDM4A SCNT/Control SCNT]: 1.85 log2
  KHDC1 Fold Change (log2) [KDM4A SCNT/Control SCNT]: 1.89 log2
  KHDC1L Fold Change (log2) [KDM4A SCNT/Control SCNT]: 1.54 log2
  KITLG Fold Change (log2) [KDM4A SCNT/Control SCNT]: 2.36 log2
  KLF17 Fold Change (log2) [KDM4A SCNT/Control SCNT]: 1.19 log2
  KLK4 Fold Change (log2) [KDM4A SCNT/Control SCNT]: 1.68 log2
  KLK11 Fold Change (log2) [KDM4A SCNT/Control SCNT]: 1.76 log2
  KPTN Fold Change (log2) [KDM4A SCNT/Control SCNT]: 4.35 log2
  LARP6 Fold Change (log2) [KDM4A SCNT/Control SCNT]: 1.35 log2
  LEMD3 Fold Change (log2) [KDM4A SCNT/Control SCNT]: 1.11 log2
  LIM2 Fold Change (log2) [KDM4A SCNT/Control SCNT]: 1.99 log2
  LINC00263 Fold Change (log2) [KDM4A SCNT/Control SCNT]: 1.39 log2
  LOC284408 Fold Change (log2) [KDM4A SCNT/Control SCNT]: 2.24 log2
  LOC347411 Fold Change (log2) [KDM4A SCNT/Control SCNT]: 1.36 log2
  LOC401397 Fold Change (log2) [KDM4A SCNT/Control SCNT]: 1.75 log2
  LOC643955 Fold Change (log2) [KDM4A SCNT/Control SCNT]: 1.44 log2
  LOC653513 Fold Change (log2) [KDM4A SCNT/Control SCNT]: 2.12 log2
  LOC723809 Fold Change (log2) [KDM4A SCNT/Control SCNT]: 1.15 log2
  LOC100129515 Fold Change (log2) [KDM4A SCNT/Control SCNT]: 1.03 log2
  LOC100289211 Fold Change (log2) [KDM4A SCNT/Control SCNT]: 2.34 log2
  LOC100505854 Fold Change (log2) [KDM4A SCNT/Control SCNT]: 1.58 log2
  LOC100506305 Fold Change (log2) [KDM4A SCNT/Control SCNT]: 1.2 log2
  LOC100506668 Fold Change (log2) [KDM4A SCNT/Control SCNT]: 1.63 log2
  LUC7L Fold Change (log2) [KDM4A SCNT/Control SCNT]: 1.28 log2
  M1 Fold Change (log2) [KDM4A SCNT/Control SCNT]: 4.71 log2
  MAGEA12 Fold Change (log2) [KDM4A SCNT/Control SCNT]: 1.81 log2
  MAGEB2 Fold Change (log2) [KDM4A SCNT/Control SCNT]: 3.15 log2
  MATR3 Fold Change (log2) [KDM4A SCNT/Control SCNT]: 1.11 log2
  MED31 Fold Change (log2) [KDM4A SCNT/Control SCNT]: 1.44 log2
  MFSD11 Fold Change (log2) [KDM4A SCNT/Control SCNT]: 1.4 log2
  MPV17L2 Fold Change (log2) [KDM4A SCNT/Control SCNT]: 1.54 log2
  MRPL28 Fold Change (log2) [KDM4A SCNT/Control SCNT]: 1.59 log2
  MTERF Fold Change (log2) [KDM4A SCNT/Control SCNT]: 2.39 log2
  NANOGNB Fold Change (log2) [KDM4A SCNT/Control SCNT]: 1.79 log2
